# Measurements as given in the supplement of paper PMC10307832.
# Columns and labels:
# Assay in all cases: relative viability (nuclei count vs DMSO), 5 days (fraction); higher = more cells survive
# Linifanib + AZD7762 = compound: Cc1ccc(F)c(NC(=O)Nc2ccc(-c3cccc4[nH]nc(N)c34)cc2)c1 [Linifanib] + NC(=O)Nc1cc(-c2cccc(F)c2)sc1C(=O)N[C@H]1CCCNC1 [AZD7762] (partner 0.2 µM)
# Method in brief: (§1)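 Lung cancer cell lines in 1536-well plates were dosed by pin tool the day after seeding, either with one drug alone or with a fixed anchor-drug dose plus five library-drug doses (not always all listed) in √10 steps. After 5 days, cells were fixed and their nuclei stained in one step (final 0.05% Triton X-100, 1% formaldehyde, 1 ug/ml Hoechst), then counted on 4× images. Relative viability is the nuclei count in treated wells divided by that in vehicle wells. Values are medians of duplicate plates.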
# Linifanib + Dasatinib = compound: Cc1ccc(F)c(NC(=O)Nc2ccc(-c3cccc4[nH]nc(N)c34)cc2)c1 [Linifanib] + Cc1nc(Nc2ncc(C(=O)Nc3c(C)cccc3Cl)s2)cc(N2CCN(CCO)CC2)n1 [Dasatinib] (partner 0.075 µM)
# Method in brief: as §1
# Linifanib + Olaparib = compound: Cc1ccc(F)c(NC(=O)Nc2ccc(-c3cccc4[nH]nc(N)c34)cc2)c1 [Linifanib] + O=C(c1cc(Cc2n[nH]c(=O)c3ccccc23)ccc1F)N1CCN(C(=O)C2CC2)CC1 [Olaparib] (partner 8 µM)
# Method in brief: as §1
# Linifanib + Palbociclib = compound: Cc1ccc(F)c(NC(=O)Nc2ccc(-c3cccc4[nH]nc(N)c34)cc2)c1 [Linifanib] + CC(=O)c1c(C)c2cnc(Nc3ccc(N4CCNCC4)cn3)nc2n(C2CCCC2)c1=O [Palbociclib] (partner 0.5 µM)
# Method in brief: as §1
# Linifanib + Foretinib = compound: Cc1ccc(F)c(NC(=O)Nc2ccc(-c3cccc4[nH]nc(N)c34)cc2)c1 [Linifanib] + COc1cc2c(Oc3ccc(NC(=O)C4(C(=O)Nc5ccc(F)cc5)CC4)cc3F)ccnc2cc1OCCCN1CCOCC1 [Foretinib] (partner 0.25 µM)
# Method in brief: as §1
# Linifanib + Phenformin = compound: Cc1ccc(F)c(NC(=O)Nc2ccc(-c3cccc4[nH]nc(N)c34)cc2)c1 [Linifanib] + N=C(N)NC(=N)NCCc1ccccc1 [Phenformin] (partner 250 µM)
# Method in brief: as §1
Cell Line,relative viability (Linifanib + AZD7762; first compound 0.03162 µM),relative viability (Linifanib + AZD7762; first compound 0.1 µM),relative viability (Linifanib + AZD7762; first compound 0.3162 µM),relative viability (Linifanib + Dasatinib; first compound 0.03162 µM),relative viability (Linifanib + Dasatinib; first compound 0.1 µM),relative viability (Linifanib + Dasatinib; first compound 0.3162 µM),relative viability (Linifanib + Olaparib; first compound 0.03162 µM),relative viability (Linifanib + Olaparib; first compound 0.1 µM),relative viability (Linifanib + Olaparib; first compound 0.3162 µM),relative viability (Linifanib + Palbociclib; first compound 0.03162 µM),relative viability (Linifanib + Palbociclib; first compound 0.1 µM),relative viability (Linifanib + Palbociclib; first compound 0.3162 µM),relative viability (Linifanib + Foretinib; first compound 0.03162 µM),relative viability (Linifanib + Foretinib; first compound 0.1 µM),relative viability (Linifanib + Foretinib; first compound 0.3162 µM),relative viability (Linifanib + Phenformin; first compound 0.03162 µM),relative viability (Linifanib + Phenformin; first compound 0.1 µM),relative viability (Linifanib + Phenformin; first compound 0.3162 µM)
201T,0.603,0.606,0.654,0.571,0.623,0.559,0.839,0.825,0.842,0.369,0.371,0.348,0.968,1.22,1.1,0.503,0.473,0.422
A-427,0.735,0.823,0.779,0.715,0.835,0.798,0.722,0.766,0.732,0.54,0.548,0.507,1.02,1.34,1.02,0.346,0.428,0.294
ABC-1,0.869,–,0.767,0.546,0.555,0.589,0.765,0.725,0.681,0.754,0.797,0.787,1.02,1.08,0.921,0.271,0.234,0.24
BEN,0.693,0.78,0.764,0.318,0.34,0.316,1.11,0.942,0.985,0.471,0.521,0.438,0.718,0.774,0.608,0.252,0.245,0.243
CAL-12T,0.623,0.661,0.588,0.457,0.508,0.343,0.642,0.703,0.702,0.485,0.446,0.419,1.14,1.21,1.14,0.636,0.617,0.458
COR-L23,–,–,–,0.532,0.647,0.418,0.337,0.384,0.302,0.31,0.298,0.273,0.952,0.951,0.959,0.464,0.431,0.399
COR-L 105,–,–,–,0.416,0.361,0.322,0.66,0.584,0.754,0.424,0.405,0.401,0.968,1.08,0.919,0.577,0.548,0.465
ChaGo-K-1,0.881,0.881,0.925,0.721,0.727,0.558,0.456,0.445,0.448,0.984,0.881,0.916,1.09,0.935,0.951,0.488,0.581,0.478
EKVX,0.78,0.873,0.808,0.662,0.662,0.547,0.953,0.868,0.914,0.447,0.383,0.415,0.787,0.886,0.686,0.241,0.25,0.194
EMC-BAC-2,1.18,1.21,1.09,0.341,0.347,0.406,0.508,0.498,0.487,0.542,0.562,0.531,1.02,1.05,1.03,0.625,0.582,0.544
EPLC-272H,0.226,0.448,0.205,0.324,0.418,0.51,0.728,1.05,0.722,0.333,0.338,0.294,0.643,0.657,0.556,0.298,0.318,0.325
H3255,0.868,0.925,0.853,0.457,0.364,0.364,0.619,0.567,0.574,0.358,0.302,0.312,1,0.946,0.721,0.345,0.203,0.438
HARA,0.402,0.445,0.387,0.234,0.335,0.285,0.855,0.837,0.745,0.274,0.244,0.303,1.09,1.06,0.835,0.446,0.539,0.476
HCC-15,0.922,1.18,1.12,0.635,0.709,0.725,0.827,0.772,0.706,0.723,0.741,0.842,1.01,1.04,1.09,0.501,0.567,0.479
HCC-44,1.09,0.914,1.04,–,–,–,1.02,0.916,0.952,0.996,0.955,1.01,–,–,–,0.29,0.195,0.248
HCC-78,0.629,0.595,0.599,0.441,0.539,0.37,0.946,0.77,0.943,0.513,0.433,0.447,0.543,0.501,0.542,0.675,0.761,0.686
HCC-366,0.181,0.243,0.221,0.554,0.648,0.582,0.337,0.458,0.323,0.398,0.427,0.373,1.01,0.981,0.826,0.575,0.62,0.635
HCC-827,0.204,0.231,0.275,0.272,0.32,0.268,0.651,0.711,0.654,0.491,0.544,0.46,1.06,1.11,1.1,0.432,0.453,0.382
HOP-62,0.569,0.586,0.4,0.672,0.702,0.701,0.546,0.243,0.534,0.454,0.453,0.465,1.14,1.12,1.02,0.736,0.689,0.653

Cell Line,relative viability (Linifanib + AZD7762; first compound 0.03162 µM),relative viability (Linifanib + AZD7762; first compound 0.1 µM),relative viability (Linifanib + AZD7762; first compound 0.3162 µM),relative viability (Linifanib + Dasatinib; first compound 0.03162 µM),relative viability (Linifanib + Dasatinib; first compound 0.1 µM),relative viability (Linifanib + Dasatinib; first compound 0.3162 µM),relative viability (Linifanib + Olaparib; first compound 0.03162 µM),relative viability (Linifanib + Olaparib; first compound 0.1 µM),relative viability (Linifanib + Olaparib; first compound 0.3162 µM),relative viability (Linifanib + Palbociclib; first compound 0.03162 µM),relative viability (Linifanib + Palbociclib; first compound 0.1 µM),relative viability (Linifanib + Palbociclib; first compound 0.3162 µM),relative viability (Linifanib + Foretinib; first compound 0.03162 µM),relative viability (Linifanib + Foretinib; first compound 0.1 µM),relative viability (Linifanib + Foretinib; first compound 0.3162 µM),relative viability (Linifanib + Phenformin; first compound 0.03162 µM),relative viability (Linifanib + Phenformin; first compound 0.1 µM),relative viability (Linifanib + Phenformin; first compound 0.3162 µM)
LC-2-ad,0.871,0.878,0.804,0.618,0.871,0.489,0.729,0.705,0.55,0.499,0.471,0.421,0.905,0.911,0.904,0.645,0.609,0.505
LCLC-97TM1,0.262,0.229,0.29,0.887,1.04,0.678,0.453,0.402,0.502,0.212,0.243,0.196,0.865,0.961,0.852,0.423,0.437,0.341
LCLC-103H,0.892,0.721,0.792,0.434,0.621,0.399,0.752,0.78,0.732,0.474,0.417,0.464,0.629,0.753,0.803,0.329,0.338,0.329
LK-2,0.618,0.504,0.376,0.308,0.349,0.403,0.694,0.759,0.732,0.564,1.01,0.565,1.12,1.33,1.08,0.447,0.691,0.4
LOU-NH91,0.752,0.816,0.739,0.61,0.612,0.558,0.909,0.956,0.869,0.551,0.517,0.51,0.942,0.981,0.884,0.734,0.806,0.732
LU99A,0.378,0.433,0.356,0.547,0.66,0.488,0.289,0.25,0.287,0.457,0.464,0.408,0.856,0.973,0.826,0.878,0.892,0.793
NCI-H520,–,–,–,0.19,0.206,0.208,0.286,0.32,0.36,0.22,0.216,0.238,0.741,1.01,0.708,0.493,0.666,0.552
NCI-H596,1.16,1.28,1.15,0.58,0.612,0.671,0.633,0.615,0.724,–,–,–,0.981,0.783,0.907,0.707,0.734,0.899
NCI-H661,–,–,–,1.07,0.983,0.871,0.771,0.783,0.7,0.437,0.398,0.417,1.07,0.978,0.973,0.288,0.281,0.313
NCI-H1650,–,–,–,0.327,0.348,0.252,0.78,0.971,0.753,0.35,0.399,0.351,0.966,1.33,1.07,0.428,0.571,0.412
NCI-H1792,0.789,0.757,0.588,0.622,0.774,0.819,0.337,0.532,0.375,0.611,0.666,0.621,–,–,–,0.517,0.519,0.337
NCI-H2009,–,–,–,0.323,0.358,0.304,0.675,0.705,0.671,0.247,0.263,0.25,1.24,1.25,1.15,0.483,0.493,0.459
NCI-H2023,–,–,–,0.543,0.681,0.565,0.518,0.615,0.46,0.357,0.415,0.345,0.807,0.806,0.836,0.398,0.479,0.392
NCI-H2228,–,–,–,0.541,0.556,0.538,0.58,1.08,0.621,0.803,0.85,0.818,1.08,0.889,0.81,0.242,0.296,0.301
SK-LU-1,–,–,–,0.205,0.196,0.193,0.467,0.558,0.456,0.359,0.449,0.366,0.805,0.816,0.811,0.528,0.622,0.58
SK-MES-1,–,–,–,0.336,0.455,0.388,0.636,0.795,0.71,0.323,0.331,0.336,0.986,1,0.827,0.704,0.692,0.653
SW 1573,–,–,–,0.578,0.931,0.539,0.463,0.498,0.505,0.367,0.448,0.366,0.897,1.21,0.843,0.411,0.363,0.438
UMC-11,–,–,–,0.42,0.491,0.466,0.388,0.485,0.374,0.342,0.309,0.335,0.986,1.16,1.04,0.334,0.327,0.326
